Measured values from patent US10961238B2, “Modulators of hedgehog (Hh) signaling pathway” (E-THERAPEUTICS PLC, priority 2016, dated 2021).
Like-named read-outs stand apart in the source and are kept apart here.

Assays:
C3H10T1/2 cells = test: C3H assay: differentiation of C3H10T1/2 cells by mSHH, measurement of alkaline phosphatase; assay type: cell-based, mouse; conditions: Mus musculus, C3H 10T1/2
SMO = target: T1, SMO (Homo sapiens, UniProt Q99835); test: Smoothened (SMO) binding fluorescence polarisation assay (BODIPY-cyclopamine competition); conditions: SMO binding FP assay versus C3H10T1/2 cellular assay
T1 construct: expressed in transfected cells; host or cells: HEK293
Experimental: Standard Protocol for Smoothened (SMO) Binding Fluorescence Polarisation Assay.
The assay measures the ability of the test compounds to compete with a fluorescently-labelled version of the known ligand, cyclopamine, for binding to SMO. The fluorescent tag used is BODIPY (boron dipyrromethene).
An aliquot of a membrane preparation from a SMO-over-expressing HEK293 cell line is diluted to protein concentration of 0.117 mg/ml in assay buffer (25 mM HEPES, 2 mM EDTA, 0.05% γ-globulin, 0.01% pluronic acid pH7.4, plus protease Inhibitor cocktail). 8.5 μl of the membrane suspension is added to each well of a black, low volume 384 well microtitre plate.
Test compounds are added in a seven point dilution range to the wells containing the membrane preparation. The final DMSO solvent concentration in the wells is maintained at 0.3%. 6.5 μl of a 6.9 nM BODIPY-cyclopamine solution is added to each of the wells (final assay concentration 3 nM).
The plate is sealed and stored in the dark at room temperature for 24 hours prior to measurement of the fluorescence polarisation signal on a Perkin Elmer Envision multi-label reader.
Table 4 below details the ratio of SMO binding compared to the potency in the C3H10T1/2 cellular assay. The small ratio between SMO binding and potency for vismodegib is considered to be reflective of the fact vismodegib acts mainly through inhibition of the SMO protein. The larger ratios for the compound of the invention are considered to be reflective of alternate actions outside of direct SMO inhibition.

[1] = C3H10T1/2 cells stimulated with mSHH for 72 hours, alkaline phosphatase activity, read-out: IC50 Ranges

T1 sequence (Q99835 28-787): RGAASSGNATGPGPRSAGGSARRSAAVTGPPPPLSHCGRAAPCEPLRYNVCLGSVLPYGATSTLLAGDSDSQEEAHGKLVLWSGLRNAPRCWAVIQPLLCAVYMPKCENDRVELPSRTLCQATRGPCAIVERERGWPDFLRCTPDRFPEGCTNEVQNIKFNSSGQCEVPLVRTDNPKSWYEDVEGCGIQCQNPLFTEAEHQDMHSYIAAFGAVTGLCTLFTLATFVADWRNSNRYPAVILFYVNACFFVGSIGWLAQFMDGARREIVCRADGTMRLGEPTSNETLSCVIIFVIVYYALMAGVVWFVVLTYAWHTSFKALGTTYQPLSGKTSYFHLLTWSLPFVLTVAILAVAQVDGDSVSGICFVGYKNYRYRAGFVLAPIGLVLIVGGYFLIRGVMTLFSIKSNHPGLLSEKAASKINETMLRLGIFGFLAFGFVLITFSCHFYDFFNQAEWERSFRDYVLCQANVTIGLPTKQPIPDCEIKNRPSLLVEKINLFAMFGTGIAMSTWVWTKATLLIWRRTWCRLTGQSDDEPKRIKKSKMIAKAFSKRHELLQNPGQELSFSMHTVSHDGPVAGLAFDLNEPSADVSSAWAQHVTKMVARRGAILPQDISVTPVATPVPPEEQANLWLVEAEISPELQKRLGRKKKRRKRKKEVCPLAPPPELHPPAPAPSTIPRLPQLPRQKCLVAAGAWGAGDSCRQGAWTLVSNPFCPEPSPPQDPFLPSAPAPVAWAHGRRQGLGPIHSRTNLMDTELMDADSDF

| IC50 (C3H10T1/2 cells; [1]) [nM] | Ratio of potency in SMO binding assay to potency in C3H10T1/2 cellular assay (SMO) | IC50 (C3H10T1/2 cells; reference compounds run in the C3H assay, read-out: mean IC50) [nM] | SMILES |
| --- | --- | --- | --- |
| 100 to 1000 | 22 | – | CC(C)OC(=O)N1CC(S(=O)(=O)N2CCC(c3c[nH]c4ncccc34)CC2)C1 [Compound 97, propan-2-yl 3-[4-(1H-pyrrolo[2,3-b]pyridin-3-yl)piperidin-1-yl]sulfonylaze-tidine-1-carboxylate] |
| 10 to 100 | 84 | – | CC(C)(C)OC(=O)N1CC(S(=O)(=O)N2CCC(c3coc4cccnc34)CC2)C1 [Compound 131, tert-Butyl 3-[(4-furo[3,2-b]pyridin-3-yl-1-piperidyl)sulfonyl]azetidine-1-carboxylate] |
| 10 to 100 | 2.7 | – | CC1(C)COCN1C(=O)N1CC(S(=O)(=O)N2CCC(c3c[nH]c4ncccc34)CC2)C1 [Compound 256, (4,4-dimethyl-1,3-oxazolidin-3-yl)-[3-[4-(1H-pyrrolo[2,3-b]pyridin-3-yl)piperidin-1-yl]sulfonylaze-tidin-1-yl]methanone] |
| 100 to 1000 | – | – | CC(C)(O)CC(=O)N1CC(S(=O)(=O)N2CCC(c3coc4cccnc34)CC2)C1 [Compound 398, 1-[3-(4-furo[3,2-b]pyridin-3-ylpiperidin-1-yl)sulfonylaze-tidin-1-yl]-3-hydroxy-3-methylbutan-1-one] |
| 100 to 1000 | – | – | Cc1cc(F)ccc1N(C)C(=O)N1CC(S(=O)(=O)N2CCC(c3coc4cccnc34)CC2)C1 [Compound 399, N-(4-fluoro-2-methyl-phenyl)-3-[(4-furo[3,2-b]pyridin-3-yl-1-piperidyl)sulfonyl]-N-methyl-azetidine-1-carboxamide] |
| 10 to 100 | – | – | O=C(Nc1c(F)cccc1F)N1CC(S(=O)(=O)N2CCC(c3coc4cccnc34)CC2)C1 [Compound 403, N-(2,6-difluorophenyl)-3-(4-furo[3,2-b]pyridin-3-ylpiperidin-1-yl)sulfonylaze-tidine-1-carboxamide] |
| 10 to 100 | – | – | CC(C)(C(=O)N1CC(S(=O)(=O)N2CCC(c3coc4cccnc34)CC2)C1)C(F)(F)F [Compound 404, 3,3,3-trifluoro-1-[3-(4-furo[3,2-b]pyridin-3-ylpiperidin-1-yl)sulfonylaze-tidin-1-yl]-2,2-dimethylpropan-1-one] |
| 10 to 100 | – | – | C[C@](O)(CC(=O)N1CC(S(=O)(=O)N2CCC(c3c[nH]c4ncccc34)CC2)C1)C(F)(F)F [Compound 405, 4,4,4-trifluoro-3-hydroxy-3-methyl-1-[3-[4-(1H-pyrrolo[2,3-b]pyridin-3-yl)piperidin-1-yl]sulfonylaze-tidin-1-yl]butan-1-one] |
| 10 to 100 | – | – | C[C@](O)(CC(=O)N1CC(S(=O)(=O)N2CCC(c3coc4cccnc34)CC2)C1)C(F)(F)F [Compound 406, 4,4,4-trifluoro-1-[3-(4-furo[3,2-b]pyridin-3-ylpiperidin-1-yl)sulfonylaze-tidin-1-yl]-3-hydroxy-3-methylbutan-1-one] |
| 100 to 1000 | – | – | CN1CCC[C@H]1C(=O)N1CC(S(=O)(=O)N2CCC(c3coc4cccnc34)CC2)C1 [Compound 407, [3-(4-furo[3,2-b]pyridin-3-ylpiperidin-1-yl)sulfonylazetidin-1-yl]-[(2S)-methylpyrroli-din-2-yl]methanone] |
| 100 to 1000 | – | – | CC(C)CC(=O)N1CC(S(=O)(=O)N2CCC(c3coc4cccnc34)CC2)C1 [Compound 408, 1-[3-(4-furo[3,2-b]pyridin-3-ylpiperidin-1-yl)sulfonylazetidin-1-yl]-3-methylbutan-1-one] |

The next lines start with the compound.

| SMILES | IC50 (C3H10T1/2 cells; [1]) [nM] | Ratio of potency in SMO binding assay to potency in C3H10T1/2 cellular assay (SMO) | IC50 (C3H10T1/2 cells; reference compounds run in the C3H assay, read-out: mean IC50) [nM] |
| --- | --- | --- | --- |
| COC(=O)c1cnc2[nH]cc(C3CCN(S(=O)(=O)C4CCN(C(=O)OC(C)(C)C)CC4)CC3)c2c1 [Compound 16, methyl 3-[1-[1-[(2-methylpropan-2-yl)oxycarbonyl]piperidin-4-yl]sulfonylpiper-idin-4-yl]-1H-pyrrolo[2,3-b]pyridine-5-carboxylate] | 100 to 1000 | >78 | – |
| CC1(C)COCC(C)(C)N1C(=O)N1CC(S(=O)(=O)N2CCC(c3cnc4occc4c3)CC2)C1 [Compound 34, [3-(4-furo[2,3-b]pyridin-5-ylpiperidin-1-yl)sulfonylaze-tidin-1-yl]-(3,3,5,5-tetramethylmor-pholin-4-yl)methanone] | 10 to 100 | 21 | – |
| O=C(OCC1CCCO1)N1CC(S(=O)(=O)N2CCC(c3c[nH]c4ncccc34)CC2)C1 (stereo not shown) [Compound 67, (oxolan-2-yl)methyl 3-[4-(1H-pyrrolo [2,3-b]pyridin-3-yl)piperidin-1-yl]sulfonylaze-tidine-1-carboxylate] | 10 to 100 | 45 | – |
| CN(C)c1ccc(C2CCN(S(=O)(=O)C3CCN(C(=O)OC(C)(C)C)CC3)CC2)cc1 [Compound 112] | 100 to 1000 | 42 | – |
| COc1cnc2[nH]cc(C3CCN(S(=O)(=O)C4CCN(C(=O)OC(C)(C)C)CC4)CC3)c2c1 [Compound 115, tert-butyl 4-[4-(5-methoxy-1H-pyrrolo[2,3-b]pyridin-3-yl)piperidin-1-yl]sulfonylpiper-idine-1-carboxylate] | 100 to 1000 | 20 | – |
| Cn1cc(-c2cnc3[nH]cc(C4CCN(S(=O)(=O)C5CN(C(=O)OC(C)(C)C)C5)CC4)c3c2)cn1 [Compound 122, tert-butyl 3-[4-[5-(1-methylpyrazol-4-yl)-1H-pyrrolo [2,3-b]pyridin-3-yl]piperidin-1-yl]sulfonylaze-tidine-1-carboxylate] | 100 to 1000 | >55 | – |
| O=C(OC[C@H]1CCCO1)N1CC(S(=O)(=O)N2CCC(c3c[nH]c4ncccc34)CC2)C1 [Compound 162, [(2R)-oxolan-2-yl]methyl 3-[4-(1H-pyrrolo[2,3-b]pyridin-3-yl)piperidin-1-yl]sulfonylaze-tidine-1-carboxylate] | 10 to 100 | 20 | – |
| CC(C)(C)OC(=O)N1CC(S(=O)(=O)N2CC=C(c3c[nH]c4ncccc34)CC2)C1 [Compound 228, tert-butyl 3-[[4-(1H-pyrrolo[2,3-b]pyridin-3-yl)-3,6-dihydro-2H-pyridin-1-yl]sulfonyl] azetidine-1-carboxylate] | 100 to 1000 | 20 | – |
| Cc1ccc(S(=O)(=O)n2ccc3c(C4=CCN(S(=O)(=O)C5CCN(C(=O)OC(C)(C)C)CC5)CC4)ncnc32)cc1 [Compound 239, tert-butyl 4-[[4-[7-(4-methylphenyl)sulfonylpyrrolo[2,3-d]pyrimidin-4-yl]-3,6-dihydro-2H-pyridin-1-yl]sulfonyl] piperidine-1-carboxylate] | 100 to 1000 | >37 | – |
| COC(=O)[C@H]1C[C@H](S(=O)(=O)N2CCC(c3c[nH]c4ncccc34)CC2)C1 [Compound 274, methyl trans-3-[4-(1H-pyrrolo[2,3-b]pyridin-3-yl)piperidin-1-yl]sulfonylcycl obutane-1-carboxylate] | 100 to 1000 | >10 | – |
| Cc1noc(C)c1CNC(=O)C1CC(S(=O)(=O)N2CCC(c3c[nH]c4ncccc34)CC2)C1 (stereo not shown) [Compound 284, N-[(3,5-dimethyl-1,2-oxazol-4-yl)methyl]-3-[4-(1H-pyrrolo [2,3-b]pyridin-3-yl)piperidin-1-yl]sulfonylcycl obutane-1-carboxamide] | 100 to 1000 | 2.3 | – |
| Cc1noc(C)c1NC(=O)C1CC(S(=O)(=O)N2CCC(c3c[nH]c4ncccc34)CC2)C1 (stereo not shown) [Compound 285, N-(3,5-dimethyl-1,2-oxazol-4-yl)-3-[4-(1H-pyrrolo [2,3-b]pyridin-3-yl)piperidin-1-yl]sulfonylcycl obutane-1-carboxamide] | 10 to 100 | 2.9 | – |
| Cc1ccc(F)cc1NC(=O)N1CC(S(=O)(=O)N2CCC(c3ccc(Cl)cc3)CC2)C1 [Compound 400, 3-[4-(4-chlorophenyl)piperidin-1-yl]sulfonyl-N-(5-fluoro-2-methylphenyl) azetidine-1-carboxamide] | 100 to 1000 | – | – |
| O=C(N1CCOCC1)N1CC(S(=O)(=O)N2CCC(c3ccc(Cl)cc3)CC2)C1 [Compound 402, [3-[4-(4-chlorophenyl)piperidin-1-yl]sulfonylaze-tidin-1-yl]-morpholin-4-ylmethanone] | 100 to 1000 | – | – |
| Cc1ccccc1C1CCN(S(=O)(=O)C2CN(C(=O)OC(C)(C)C)C2)CC1 [Compound 409, tert-butyl 3-[4-(2-methylphenyl)piperidin-1-yl]sulfonylaze-tidine-1-carboxylate] | 1000 to 10000 | – | – |
| CC1(C)COCN1C(=O)N1CC(S(=O)(=O)N2CCC(c3ccc(Cl)cc3)CC2)C1 [Compound 411, [3-[4-(4-chlorophenyl)piperidin-1-yl]-sulfonylaze-tidin-1-yl]-(4,4-dimethyl-1,3-oxazolidin-3-yl)-methanone] | 10 to 100 | – | – |
| Cc1c(C(=O)Nc2ccc(N3C[C@@H](C)O[C@@H](C)C3)nc2)cccc1-c1ccc(OC(F)(F)F)cc1 [Sonidegib, reference compound] | – | – | 11 |
